# Experimental data reported in patent US20190225643A1, “NOVEL NUCLEOSIDE ANALOGS AND USE THEREOF IN THERAPEUTIC TREATMENT” (CORNELL UNIVERSITY, priority 2016, published 2019).
# What was measured:
# [1] = tested on: BC3 cells; test: Annexin V/7-AAD cell death flow cytometry; format: cell-based, human; conditions: 500 nM or 5 μM, 48 hours; versus IBL1
# Description: BC3 and IBL1 cells in the exponential phase were seeded at a cell density of 0.2 million cells/ml. Cells were treated with 0.1% DMSO or with 6-ETI at a final concentration of 500 nM or 5 μM for 24, 48 or 72 hrs. Post-treatment, cells were harvested and stained with 2.54 of Alexa Fluor 647 Annexin V conjugate (Life technologies) and 2.5 fit of 7-AAD (BD biosciences) and incubated for 15 minutes in the dark at room temperature. Subsequently, 2004 of Annexin V binding buffer (BD Biosciences) was added to the cell suspension and cells analyzed by flow cytometry using BD biosciences LSRII machine.
# [2] = biological target: ADK (Homo sapiens, UniProt P55263); test: In vitro ADK kinase assay with HPLC/MS; format: biochemical; conditions: 37° C., 5-360 minutes
# Description: The ADK kinase assay kit was purchased from Novocib, France. ADK and ATP provided in the kit were premixed into provided kinase assay buffer. The reaction at 37° C. was started by addition of 6-ETI in DMSO at T=0, followed by quenching of 10 μL of the reaction by 30 μL acetonitrile in an eppendorf tube at 5, 10, 15, 30, 60, 120, 150, 180, and 360 minutes. The quenched reaction was briefly vortexed and centrifuged at ˜7000 g, following which the supernatant was transferred into a fresh tube and stored at 4° C. for HPLC/MS analysis. A control reaction was set up containing ADK, ATP, and Inosine, in order to generate a standard peak for IMP, while ADK, DTT, and ATP controls were generated by dissolving individual kit components in a 3:1 acetonitrile:dH2O solution.
# LCMS separations were performed using a Waters ACQUITY UPLC system equipped with ACQUITY PDA (diode array), Waters Micromass SQD 2000 spectrometer, and a Waters ACQUITY BEH C18 column (1.7 μm, 2.1×100 mm). The solvent system consisted of 0.1% Formic Acid in Water (Solvent A) and 0.1% Formic Acid in Acetonitrile (Solvent B). Flow was set to 0.3 mL/min, and a gradient of 5-95% Solvent B was applied over a period of 3 minutes. Total runtime was 4 minutes. Eluents were detected using a PDA at a wavelength of 254 nm. Mass data was obtained in both positive and negative electrospray mode, at a cone voltage of 30V.
# [3] = tested on: IBL-1 subcutaneous xenograft; test: Xenograft model of EBV-associated immunoblastic lymphoma; format: in vivo, mouse; conditions: 300 mg/kg/day i.p., 5 treatments over 10 days
# Description: The in vivo xenograft model of EBV-associated immunoblastic lymphoma was generated by injecting NOD-SCID mice (obtained from Jackson Laboratory Stock# 001303) subcutaneously on the flank region with 5*10^6IBL-1 cells in 200 μl of 50:50 matrigel/cell suspension per mouse. After forming palpable or measurable tumors, mice were randomly grouped (n=3 per group) and treated intraperitoneally with vehicle PBS-Tween80 or 6-ETI (300mg/kg/day) for 5 treatments over the course of 10 days where drug was administered three times a week. Tumor size was assessed by caliper measurement three times a week, and tumor volume (V) was calculated using the formula V=(length×Width^2)/2 where L=length or largest tumor diameter and W=width or the perpendicular tumor diameter. Relative tumor volume was determined according to the formula Vd/V0 where Vd is tumor volume on the day of measurement, and V0 represents the tumor volume on day 0 when the treatment started. At the end of the treatment course, two of the control mice were treated with vehicle PBS-Tween80 or 6-ETI (300 mg/kg) for 24 hr after which the tumors were harvested, fixed in 10% formalin and embedded in paraffin for histological examination and immunohistochemistry.
# [4] = tested on: BC3NFRen-luc #3 PEL xenograft; test: PEL xenograft model (BC3NFRen-luc #3 in NOD-SCID mice); format: in vivo
# Description: The BC3 in vivo xenograft model was set up as previously described (6). Essentially, ˜4-6 week old male NOD-SCID mice (Jackson Labs Stock# 001303) were injected intraperitoneally (I.P.) with 1*10^7 BC3NFRen-luc #3 cells and followed by in vivo imaging every three days. After imaging on day 5 to confirm establishment of the tumor, the mice were randomized to vehicle, low dose and high dose cohorts, with average tumor burden distributed evenly across the groups. Each dose cohort contained 10 mice. Mice were treated for nine days beginning at randomization with vehicle (PBS-Tween80), low dose 6-ETI (150 mg/kg/day), or high dose 6-ETI (300 mg/kg/day). Mice were treated with 200 mg/kg of the 6-ETI analogs (phospho-6ETI and 6-ETI cAMP) for 9 days. We monitored mice for tumor growth by live imaging and weighing, with sacrifice point determined to be a net gain or loss of 10% body weight over a week. Upon reappearance of refractory tumors, mice were re-treated for a further 9-day interval, and followed for a total of 100 days. Compound effects were assessed on overall survival, progression-free survival and tumor burden by Kaplan-Meier curves generated using GraphPad Prism software, and determined p values by 2-tailed analysis with log-rank tests.
# [5] = tested on: colon (RKO, HCT116, DID1) and pancreatic (PA-TU-8988T) cancer cell lines; test: Viability of adenocarcinoma cell lines; format: cell-based
# Description: Cell viability assays were performed by plating log-phase cells in RPMI complete media with 20% FBS at 1*10^5 cells/mL, with concentrations of 6-ETI or phospho-6-ETI ranging from 0.1 nM to 100 μM. ATP content at 24, 48 and 72 hours post-treatment was measured by the CellTiter-Glo kit (Promega, Madison, Wis.), or by Trypan blue assay as indicated. The LC50 for 6-ETI in each cell line was determined using online EC50 software at changbioscience.com or using GraphPad Prism to determine the LC50 for 6-ETI, phospho-6-ETI and nucleoside analogs in MM cell lines and primary MM patient samples.
# [6] = tested on: NF-κB activity in BC3NFRen-luc#3 cells; test: NF-κB luciferase reporter assay; format: cell-based, human; conditions: as early as 6 hours post-treatment
# Description: Exponentially growing BC3-derived reporter cell lines (BC3NFκB-luc#6 or BC3NFRen-luc#3), and unrelated luciferase expressing U251-pGL3 cells were resuspended in respective RPMI-1640 complete media, and plated in a 96-well tissue culture microplate at 7.5*10^5 cells/mL and 3*10^5 cells/mL, respectively, in the presence or absence of varying concentrations of test compounds. […]
# ADK, sequence (P55263 whole entry): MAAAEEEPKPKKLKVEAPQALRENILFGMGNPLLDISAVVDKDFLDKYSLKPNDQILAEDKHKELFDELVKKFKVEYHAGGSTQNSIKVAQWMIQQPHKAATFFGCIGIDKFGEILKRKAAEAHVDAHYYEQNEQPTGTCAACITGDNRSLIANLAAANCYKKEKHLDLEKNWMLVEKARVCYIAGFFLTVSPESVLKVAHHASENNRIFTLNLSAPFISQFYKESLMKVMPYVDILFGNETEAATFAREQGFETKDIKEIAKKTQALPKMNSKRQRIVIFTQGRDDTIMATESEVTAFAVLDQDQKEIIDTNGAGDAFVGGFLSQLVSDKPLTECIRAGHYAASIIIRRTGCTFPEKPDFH
smiles,measurement,setting,value
"CCSc1ncnc2c1ncn2[C@@H]1O[C@H](CO)C(O)[C@@H]1O (stereo partly drawn) [Compound 6-ETI, 6-ethylthioinosine]",proportion of dead cells (Annexin V/7-AAD),[1],higher proportion of dead cells
same,phosphorylation by ADK,[2],ADK phosphorylates 6-ETI directly
same,tumor growth,[3],reduced the rate of tumor growth
same,toxicities from treatment,[4]; 150 or 300 mg/kg/day,no obvious toxicities
same,tumor response by in vivo luciferase imaging,"[4]; 150 or 300 mg/kg/day for 9 days, within three days of treatment",striking and immediate regression of the implanted xenograft
same,progression-free survival,"[4]; 150 or 300 mg/kg/day, p<0.0001, 100 days",startling protective effect
same,overall survival,[4]; low dose and high dose versus untreated,significant prolonged overall survival
same,LC50,[5],nanomolar range
same,NF-κB reporter activity,[6],inhibited NF-κB activity
